Patent US20130224110A1, “USE OF ADENOSINE RECEPTOR SIGNALING TO MODULATE PERMEABILITY OF BLOOD-BRAIN BARRIER” (CORNELL UNIVERSITY, priority 2010, published 2013)

Legend:
[1] = test system: EAE; assay: EAE induction and scoring (MOG35-55/CFA/PTX); format: in vivo, mice; settings: wild type mice, 2 mg/kg (1 mg/kg i.p. and 1 mg/kg s.c.) 1 day prior to EAE induction and daily for 30 days, vs DMSO alone
Source text: Cd73^−/− mice have been previously described (Thompson et al., “Crucial Role for Ecto-5′-Nucleotidase (CD73) in Vascular Leakage During Hypoxia,” J. Exp. Med. 200:1395-1405 (2004), which is hereby incorporated by reference in its entirety) and have been backcrossed to C57BL/6 for 14 generations. Cd73^−/− mice have no overt susceptibility to infection and appear normal based on the size and cellular composition of their lymphoid organs and their T and B cell responses in in vivo and in vitro assays (Thompson et al., “Crucial Role for Ecto-5′-Nucleotidase (CD73) in Vascular Leakage During Hypoxia,” J. Exp. Med. 200:1395-1405 (2004), which is hereby incorporated by reference in its entirety). C57BL/6 and tcrα^−/− mice on the C57BL/6 background were purchased from The Jackson Laboratories. Mice were bred and housed under specific pathogen-free conditions at Cornell University or the University of Turku. For adenosine receptor blockade experiments, mice were given drinking water supplemented with 0.6 g/L of caffeine (Sigma) or 2 mg/kg SCH58261 (1 mg/kg s.c. and 1 mg/kg i.p.) in DMSO (45% vol. in PBS) or 45% DMSO alone starting 1 day before EAE induction and continuing throughout the experiment. All procedures performed on mice were approved by the relevant animal review committee.
EAE was induced by subjecting mice to the myelin oligodendrocyte glycoprotein (“MOG”) EAE-inducing regimen as described in Swanborg, “Experimental Autoimmune Encephalomyelitis in Rodents as a Model for Human Demyelinating Disease,” Clin. Immunol. Immunopathol. 77:4-13 (1995) and Bynoe et al., “Epicutaneous Immunization with Autoantigenic Peptides Induces T Suppressor Cells that Prevent Experimental Allergic Encephalomyelitis,” Immunity 19:317-328 (2003), which are hereby incorporated by reference in their entirety. […] Mice were scored daily for EAE based on disease symptom severity; 0=no disease, 0.5-1=weak/limp tail, 2=limp tail and partial hind limb paralysis, 3=total hind limb paralysis, 4=both hind limb and fore limb paralysis, 5=death. […]
As CD73 catalyzes the breakdown of AMP to adenosine and ARs are expressed in the CNS (Tsutsui et al., “A1 Adenosine Receptor Upregulation and Activation Attenuates Neuroinflammation and Demyelination in a Model of Multiple Sclerosis,” J. Neurosci. 24:1521-1529 (2004)); Rosi et al., The Influence of Brain Inflammation Upon Neuronal Adenosine A2B Receptors,” J. Neurochem. 86:220-227 (2003), which are hereby incorporated by reference in their entirety), it was next determined if AR signaling is important during EAE progression. […] Since CD73 is highly expressed on the choroid plexus (FIG. 6C), it was next determined if ARs are also expressed on the choroid plexus. […]

[2] = test system: blood brain barrier; assay: Evans Blue dye extravasation across the blood brain barrier; format: in vivo, mice; settings: single i.v. injection 100 μl 0.01 nM one hour before dye
Description: The objective of this experiment was to determine if the blood brain barrier could be modulated by activation of adenosine receptors. NECA is a non-selective adenosine receptor agonist, with similar affinities for A1, A2A and A3 adenosine receptors and a low affinity for the A2b adenosine receptor. In order to determine if activation of adenosine receptors would induce extravasation of Evans Blue dye across the blood brain barrier (BBB), mice were treated with: NECA, a non-selective adenosine receptor agonist (n=5, 100 μl 0.01 nM); SCH58261, an A2A adenosine receptor specific antagonist (n=5, 1 mg/kg); pertussis toxin, an agent known to induce BBB leakiness and as such used as a positive control (n=7, 200 μl); and, PBS as a vehicle control (n=5, 100 μl). CD73^−/− mice, which lack the ability to produce extracellular adenosine, were also treated with NECA (n=4, 100 μl 0.01 nM). Treatments were administered as a single i.v. injection one hour prior to i.v. injection of 200 μl 1% Evans Blue dye ([…] total dye injected). Four hours after administration of Evans Blue, mice were anesthetized with a ketamine/xylazine mix and perfused via the left ventricle with ice cold PBS. […] Following extraction, the tissue/solvent mixture was centrifuged at 500×g for 30 minutes and 100 μl of supernatant was read on a BioTex spectrophotometer at 620 nm. Data is expressed as μg Evans Blue/ml DMF.

[3] = test system: Bend.3 cells; assay: Tight junction molecule staining (ZO-1, Claudin-5, Occludin); format: cell-based, mouse; settings: 1 μM, 1 h
Description: Bend.3 cells grown on collagen coated coverslips were incubated with DMSO vehicle, NECA (1 μM), or Lexiscan (1 μM) for 1 h. Cells were washed with PBS, fixed with 4% paraformaldehyde, and permeabilized with 0.5% Triton-X in PBS. Cells were blocked with PBS/BSA/goat serum and then stained with antibodies (Invitrogen) against either ZO-1 (1A12), Claudin-5 (34-1600), or Occludin (3F10). Following a wash step, cells were incubated with either goat anti-rabbit IgTexas Red-X or goat anti-mouse IgCy5 (Invitrogen). Cover slips were washed and mounted on slides with ProlongGold containing DAPI. Images were obtained on a Zeiss Axio Imager M1 fluorescent microscope.

SMILES | EAE development [1] | Evans Blue dye migration vs. PBS control ([2]; CD73−/− mice) | Evans Blue dye migration vs. control ([2]; WT mice) | ZO-1 and claudin-5 expression [3] | occludin expression [3]
Nc1nc2c(cnn2CCc2ccccc2)c2nc(-c3ccco3)nn12 [SCH58261, 2-(2-Furanyl)-7-(2-phenylethyl)-7H-pyrazolo[4,3-e][1,2,4]triazolo[1,5-c]pyrimidin-5-amine] | dramatically protected against EAE development |  |  |  | 
CCNC(=O)[C@H]1O[C@@H](n2cnc3c(N)ncnc32)[C@H](O)[C@@H]1O [NECA, 5′-N-ethylcarboxamido adenosine] |  | almost five fold increase | increase over control mice | discreet alterations in ZO-1 and claudin-5 | severely diminished occludin expression
